These results are taken from US10981926B2 (Janssen Pharmaceutica NV, priority 2016, dated 2021).

Assay [1] addresses T1, wild-type Androgen Receptor (AR-wt) (Homo sapiens (Human), UniProt P10275). The assay is described as follows: LNCaP-AR-wt ANT reporter assay (antagonist mode). In kind it is cell-based. Particulars: for IC50: read-out: LNCaP-AR-wt ANT pIC50 (converted); for Emax: maximum % inhibition of R1881 control response over the tested concentration range, read-out: LNCaP-AR-wt ANT MAX % Inh.

For assay [2], the target named is T1, wild-type Androgen Receptor (AR-wt). Nature of the assay: LNCaP-AR-wt AG reporter assay (agonist mode). Particulars: for EC50: agonist mode, pEC50 = −Log10(EC50 in Molar), read-out: LNCaP-AR-wt AG pEC50 (converted); for Emax: maximum % stimulation (agonist response) over the tested concentration range, read-out: LNCaP-AR-wt AG MAX % Stim. The assay is classed as cell-based.

The target of assay [3] is T2, F876L mutant Androgen Receptor (AR-F876L) (Homo sapiens (Human), UniProt P10275, F877L). The assay is described as follows: LNCaP-AR-F876L ANT reporter assay (antagonist mode). Particulars: for IC50: read-out: LNCaP-AR-F876L ANT pIC50 (converted); for Emax: maximum % inhibition of R1881 control response over the tested concentration range, read-out: LNCaP-AR-F876L ANT MAX % Inh. The assay is classed as cell-based. (In general: A reporter such as luciferase makes a cellular process visible.)
T2 sequence (P10275 whole entry F877L): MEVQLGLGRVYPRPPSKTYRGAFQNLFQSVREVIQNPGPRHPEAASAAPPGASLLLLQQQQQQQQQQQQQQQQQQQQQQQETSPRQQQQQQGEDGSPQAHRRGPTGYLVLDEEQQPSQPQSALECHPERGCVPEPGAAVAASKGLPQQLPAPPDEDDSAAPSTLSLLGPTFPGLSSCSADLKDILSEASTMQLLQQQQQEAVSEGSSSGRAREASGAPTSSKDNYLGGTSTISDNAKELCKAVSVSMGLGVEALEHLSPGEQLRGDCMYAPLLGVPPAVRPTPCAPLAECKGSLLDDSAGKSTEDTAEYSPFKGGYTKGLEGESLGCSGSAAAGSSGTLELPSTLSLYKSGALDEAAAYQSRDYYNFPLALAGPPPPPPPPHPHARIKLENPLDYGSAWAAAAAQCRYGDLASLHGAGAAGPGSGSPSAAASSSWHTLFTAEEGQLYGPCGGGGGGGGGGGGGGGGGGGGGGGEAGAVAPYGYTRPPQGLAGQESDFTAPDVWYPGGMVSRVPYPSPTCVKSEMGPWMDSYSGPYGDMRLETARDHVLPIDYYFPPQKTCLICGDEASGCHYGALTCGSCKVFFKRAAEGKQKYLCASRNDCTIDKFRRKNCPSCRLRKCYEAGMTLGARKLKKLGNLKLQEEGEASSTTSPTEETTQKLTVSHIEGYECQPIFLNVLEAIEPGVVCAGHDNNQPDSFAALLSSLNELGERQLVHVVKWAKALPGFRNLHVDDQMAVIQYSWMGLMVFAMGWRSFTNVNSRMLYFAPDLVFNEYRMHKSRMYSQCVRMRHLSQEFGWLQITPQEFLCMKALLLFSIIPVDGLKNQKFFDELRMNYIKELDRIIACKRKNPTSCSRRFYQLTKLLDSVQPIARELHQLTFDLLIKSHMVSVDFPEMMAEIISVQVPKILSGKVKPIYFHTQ

Assay [4] deals with T2, F876L mutant Androgen Receptor (AR-F876L). The assay is described as follows: LNCaP-AR-F876L AG reporter assay (agonist mode). In kind it is cell-based. Particulars: for EC50: agonist mode, pEC50 = −Log10(EC50 in Molar), read-out: LNCaP-AR-F876L AG pEC50 (converted); for Emax: maximum % stimulation (agonist response) over the tested concentration range, read-out: LNCaP-AR-F876L AG MAX % Stim.

The next assay deals with rGABA-gated Cl− channel. The assay is described as follows: GABA-Gated Cl Channel Antagonist Radioligand Binding Assay. On the set-up: species or system rat. The note with it: 10 μM single point, [35S]-TBPS, cerebral cortex membrane homogenates. The procedure, abridged: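 Rat cerebral cortex membranes (120 μg protein) incubated 120 min at 22° C with 3 nM […] in 50 mM Na2HPO4/KH2PO4 pH 7.4, 500 mM NaCl; nonspecific binding defined with 20 μM picrotoxinin. Bound label counted after filtration; values are percent inhibition of specific binding at 10 μM compound.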

Where [5] appears, read: antagonist mode, pIC50 = −Log10(IC50 in Molar).

T1 sequence (P10275 whole entry): as the sequence (P10275 whole entry F877L) above, with L877F counted along it

Consider `N#Cc1ncc(N2C(=O)C3(CCC3)N(c3ccc(OC4CCN(CCO)CC4)nc3)C2=S)cc1C(F)(F)F` [Cpd 63, 5-[8-[6-[[1-(2-hydroxyethyl)-4-piperidyl]oxy]-3-pyridyl]-5-oxo-7-thioxo-6,8-diazaspiro[3.4]octan-6-yl]-3-(trifluoromethyl)pyridine-2-carbonitrile], for which the IC50 in assay [1] (setting [5]) was 81.3 nM; in assay [3] (setting [5]) it was 69.2 nM. For the same compound, the Emax in assay [1] was found to be 102%; in assay [2], 0%; in assay [3], 101%; in assay [4] it was 0.1%. Further, the EC50 in assay [2] and in assay [4] was greater than 15100 nM in each case. In addition, the “rGABA-gated Cl− channel % inh @10 μM” value with rGABA-gated Cl− channel amounted to 13.0%.

Turning to `N#Cc1ncc(N2C(=O)C3(CCC3)N(c3ccc(OC4CCNCC4)nc3)C2=S)cc1Cl` [Cpd 64, 3-chloro-5-[5-oxo-8-[6-(4-piperidyloxy)-3-pyridyl]-7-thioxo-6,8-diazaspiro[3.4]octan-6-yl]pyridine-2-carbonitrile], the “LNCaP-AR-wt ANT pIC50” value in assay [1] (setting [5]) is reported as 7.30. The Emax in assay [1] was 101%; in assay [2] it was -0.2%; in assay [3] it was 100%; in assay [4] it was 0.1%. Further, the EC50 in assay [2] and in assay [4] was greater than 15100 nM in each case. Moreover, the “LNCaP-AR-F876L ANT pIC50” value in assay [3] (setting [5]) is recorded as 7.33. For the same compound, the “rGABA-gated Cl− channel % inh @10 μM” value with rGABA-gated Cl− channel is recorded as 5.8%.

In the case of `N#CCN1CCC(Oc2ccc(N3C(=S)N(c4cnc(C#N)c(Cl)c4)C(=O)C34CCC4)cn2)CC1` [Cpd 65, 3-chloro-5-[8-[6-[[1-(cyanomethyl)-4-piperidyl]oxy]-3-pyridyl]-5-oxo-7-thioxo-6,8-diazaspiro[3.4]octan-6-yl]pyridine-2-carbonitrile], the IC50 in assay [1] (setting [5]) was 7.24 nM; in assay [3] (setting [5]), 8.51 nM. Further, the Emax in assay [1] was 101%; in assay [2] it was 0.4%; in assay [3] it was 99.3%; in assay [4], 0.4%. In addition, the EC50 in assay [2] and in assay [4] was greater than 15100 nM throughout. In addition, in the assay on rGABA-gated Cl− channel, the “rGABA-gated Cl− channel % inh @10 μM” value is listed as 67.2%.

`N#Cc1ncc(N2C(=O)C3(CCC3)N(c3ccc(OC4CCN(CC(F)(F)F)CC4)nc3)C2=S)cc1C(F)(F)F` [Cpd 66, 5-[5-oxo-7-thioxo-8-[6-[[1-(2,2,2-trifluoroethyl)-4-piperidyl]oxy]-3-pyridyl]-6,8-diazaspiro[3.4]octan-6-yl]-3-(trifluoromethyl)pyridine-2-carbonitrile]: the IC50 was 49 nM in assay [1] (setting [5]) and 45.7 nM in assay [3] (setting [5]). Moreover, the Emax in assay [1] is 99%; in assay [2], 0.5%; in assay [3], 95.5%; in assay [4] it was 0.9%. Further, the EC50 in assay [2] and in assay [4] was greater than 15100 nM in each case. In addition, the “rGABA-gated Cl− channel % inh @10 μM” value in the assay on rGABA-gated Cl− channel is 83.0%.

Turning to `N#Cc1ncc(N2C(=O)C3(CCC3)N(c3ccc(OC4CCN(CCF)CC4)nc3)C2=S)cc1C(F)(F)F` [Cpd 67, 5-[8-[6-[[1-(2-fluoroethyl)-4-piperidyl]oxy]-3-pyridyl]-5-oxo-7-thioxo-6,8-diazaspiro[3.4]octan-6-yl]-3-(trifluoromethyl)pyridine-2-carbonitrile], the IC50 in assay [1] (setting [5]) was 42.7 nM; in assay [3] (setting [5]), 46.8 nM. The Emax in assay [1] came to 99.6%; in assay [2], 0.4%; in assay [3], 97.4%; in assay [4], 0.7%. Besides, the EC50 in assay [2] and in assay [4] was greater than 15100 nM in each case. In addition, the “rGABA-gated Cl− channel % inh @10 μM” value with rGABA-gated Cl− channel stood at 53.4%.

For `N#Cc1ncc(N2C(=O)C3(CCC3)N(c3ccc(OC4CCC(N)CC4)cc3)C2=S)cc1C(F)(F)F` (stereo not drawn) [Cpd 68, 5-[8-[4-(4-aminocyclohexoxy)phenyl]-5-oxo-7-thioxo-6,8-diazaspiro[3.4]octan-6-yl]-3-(trifluoromethyl)pyridine-2-carbonitrile], the IC50 in assay [1] (setting [5]) was 39.8 nM; in assay [3] (setting [5]) it was 17.4 nM. Also, the Emax was 101% in assay [1], 0.6% in assay [2], 99.7% in assay [3] and 0.4% in assay [4]. Also, the EC50 in assay [2] and in assay [4] was greater than 15100 nM in each case. Further, in the assay on rGABA-gated Cl− channel, the “rGABA-gated Cl− channel % inh @10 μM” value amounted to 34.9%.

With `N#Cc1ncc(N2C(=O)C3(CCC3)N(c3ccc(N4CCOCC4)cc3)C2=S)cc1C(F)(F)F` [Cpd 69, 5-[8-(4-Morpholinophenyl)-5-oxo-7-thioxo-6,8-diazaspiro[3.4]octan-6-yl]-3-(trifluoromethyl)pyridine-2-carbonitrile], the IC50 was 115 nM in assay [1] (setting [5]) and 69.2 nM in assay [3] (setting [5]). The Emax in assay [1] amounted to 101%; in assay [2], 0.2%; in assay [3], 98.9%; in assay [4] it was 0.1%. For the same compound, the EC50 in assay [2] and in assay [4] was greater than 15100 nM throughout. Further, the “rGABA-gated Cl− channel % inh @10 μM” value in the assay on rGABA-gated Cl− channel was determined as 77.5%.

In the case of `COCCN1CCC(Oc2ccc(N3C(=S)N(c4cnc(C#N)c(Cl)c4)C(=O)C34CCC4)cn2)CC1` [Cpd 70, 3-chloro-5-[8-[6-[[1-(2-methoxyethyl)-4-piperidyl]oxy]-3-pyridyl]-5-oxo-7-thioxo-6,8-diazaspiro[3.4]octan-6-yl]pyridine-2-carbonitrile], the results for the IC50 in assay [1] (setting [5]) and in assay [3] (setting [5]) were 33.9 nM and 38.9 nM, respectively. Further, the Emax in assay [1] is 98.8%; in assay [2], 0.8%; in assay [3], 97.1%; in assay [4], 3.6%. In addition, the EC50 in assay [2] and in assay [4] was greater than 15100 nM throughout. The “rGABA-gated Cl− channel % inh @10 μM” value in the assay with rGABA-gated Cl− channel worked out at 9.2%.

For `CC(=O)N1CC(F)(F)CC1COc1ccc(N2C(=S)N(c3cnc(C#N)c(C(F)(F)F)c3)C(=O)C23CCC3)cc1` (stereo not drawn) [Cpd 71, 5-[8-[4-[(1-acetyl-4,4-difluoro-pyrrolidin-2-yl)methoxy]phenyl]-5-oxo-7-thioxo-6,8-diazaspiro[3.4]octan-6-yl]-3-(trifluoromethyl)pyridine-2-carbonitrile], the IC50 is 102 nM in assay [1] (setting [5]) and 178 nM in assay [3] (setting [5]). In addition, the Emax in assay [1] turned out to be 101%; in assay [2], 0.2%; in assay [3] it was 98.3%; in assay [4], 0.5%. For the same compound, the EC50 in assay [2] and in assay [4] was greater than 15100 nM in each case. In addition, the “rGABA-gated Cl− channel % inh @10 μM” value with rGABA-gated Cl− channel came out at 82.1%.

For `CN1CCC(CNC(=O)c2ccc(N3C(=S)N(c4cnc(C#N)c(C(F)(F)F)c4)C(=O)C34CCC4)cc2)CC1` [Cpd 72, 4-[6-[6-cyano-5-(trifluoromethyl)-3-pyridyl]-5-oxo-7-thioxo-6,8-diazaspiro[3.4]octan-8-yl]-N-[(1-methyl-4-piperidyl)methyl]benzamide], the IC50 in assay [1] (setting [5]) was 275 nM; in assay [3] (setting [5]) it was 174 nM. The Emax is 101% in assay [1], -0.1% in assay [2], 100% in assay [3] and 0% in assay [4]. The EC50 in assay [2] and in assay [4] was greater than 15100 nM each time. In addition, in the assay with rGABA-gated Cl− channel, the “rGABA-gated Cl− channel % inh @10 μM” value stood at 20.0%.

Turning to `CNC(=O)N1CCC(CNC(=O)c2ccc(N3C(=S)N(c4cnc(C#N)c(C(F)(F)F)c4)C(=O)C34CCC4)cc2)CC1` [Cpd 73, 4-[[[4-[6-[6-cyano-5-(trifluoromethyl)-3-pyridyl]-5-oxo-7-thioxo-6,8-diazaspiro[3.4]octan-8-yl]benzoyl]amino]methyl]-N-methyl-piperidine-1-carboxamide], the figures for the IC50 in assay [1] (setting [5]) and in assay [3] (setting [5]) were 501 nM and 224 nM, respectively. The Emax turned out to be 101% in assay [1], 1% in assay [2], 97.6% in assay [3] and 0.5% in assay [4]. The EC50 in assay [2] and in assay [4] was greater than 15100 nM in each case. The “rGABA-gated Cl− channel % inh @10 μM” value in the assay on rGABA-gated Cl− channel was found to be 80.1%.

As to `N#Cc1ncc(N2C(=O)C3(CCC3)N(c3ccc(OCC4CNCCO4)cc3)C2=S)cc1C(F)(F)F` (stereo not drawn) [Cpd 74, 5-[8-[4-(morpholin-2-ylmethoxy)phenyl]-5-oxo-7-thioxo-6,8-diazaspiro[3.4]octan-6-yl]-3-(trifluoromethyl)pyridine-2-carbonitrile], the IC50 in assay [1] (setting [5]) is 72.4 nM; in assay [3] (setting [5]) it was 21.4 nM. Besides, the Emax in assay [1] came to 100%; in assay [2], 0.2%; in assay [3] it was 98.1%; in assay [4] it was 1.5%. Moreover, the EC50 in assay [2] and in assay [4] was greater than 15100 nM throughout. Also, the “rGABA-gated Cl− channel % inh @10 μM” value in the assay with rGABA-gated Cl− channel is 13.9%.
